What was measured:
Format in all cases: functional
NCI-H226 [1] = assay: Cytotoxicity against human NCI-H226 cells assessed as cell growth at 10 uM after 48 hrs by sulforhodamine B assay relative to control; details: NCI-H226, 48 h, read-out: Activity
OVCAR-4 [2] = assay: Cytotoxicity against human OVCAR4 cells assessed as cell growth at 100 uM after 48 hrs by sulforhodamine B assay relative to control; details: OVCAR-4, 48 h, read-out: Activity
SK-MEL-28 = assay: Cytotoxicity against human SK-MEL-28 cells assessed as cell growth at 1 uM after 48 hrs by sulforhodamine B assay relative to control; details: SK-MEL-28, 48 h, read-out: Activity
DU-145 [3] = assay: Cytotoxicity against human DU145 cells assessed as cell growth at 1 uM after 48 hrs by sulforhodamine B assay relative to control; details: DU-145, 48 h, read-out: Activity
NCI-H23 = assay: Cytotoxicity against human NCI-H23 cells assessed as cell growth at 0.1 uM after 48 hrs by sulforhodamine B assay relative to control; details: NCI-H23, 48 h, read-out: Activity
OVCAR-3 = assay: Cytotoxicity against human OVCAR3 cells assessed as cell growth at 10 uM after 48 hrs by sulforhodamine B assay relative to control; details: OVCAR-3, 48 h, read-out: Activity
SF-539 [4] = assay: Cytotoxicity against human SF539 cells assessed as cell growth at 0.1 uM after 48 hrs by sulforhodamine B assay relative to control; details: SF-539, 48 h, read-out: Activity
PC-3 [5] = assay: Cytotoxicity against human PC3 cells assessed as cell growth at 100 uM after 48 hrs by sulforhodamine B assay relative to control; details: PC-3, 48 h, read-out: Activity
CCRF-CEM [6] = assay: Cytotoxicity against human CCRF-CEM cells assessed as cell growth at 1 uM after 48 hrs by sulforhodamine B assay relative to control; details: read-out: Activity
MDA-MB-468 [7] = assay: Cytotoxicity against human MDA-MB-468 cells assessed as growth inhibition after 48 hrs by sulforhodamine B assay; details: MDA-MB-468, 48 h
PC-3 [8] = assay: Cytotoxicity against human PC3 cells assessed as cell growth at 0.01 uM after 48 hrs by sulforhodamine B assay relative to control; details: PC-3, 48 h, read-out: Activity
SF-539 [9] = assay: Cytotoxicity against human SF539 cells assessed as cell growth at 100 uM after 48 hrs by sulforhodamine B assay relative to control; details: SF-539, 48 h, read-out: Activity
SF-539 [10] = assay: Cytotoxicity against human SF539 cells assessed as cell growth at 1 uM after 48 hrs by sulforhodamine B assay relative to control; details: SF-539, 48 h, read-out: Activity
HT-29 = assay: Cytotoxicity against human HT-29 cells assessed as cell growth at 0.1 uM after 48 hrs by sulforhodamine B assay relative to control; details: HT-29, 48 h, read-out: Activity
NCI-H226 [11] = assay: Cytotoxicity against human NCI-H226 cells assessed as cell growth at 0.01 uM after 48 hrs by sulforhodamine B assay relative to control; details: NCI-H226, 48 h, read-out: Activity
SR = assay: Cytotoxicity against human SR cells assessed as cell growth at 0.01 uM after 48 hrs by sulforhodamine B assay relative to control; details: read-out: Activity
SK-MEL-5 = assay: Cytotoxicity against human SK-MEL-5 cells assessed as cell growth at 100 uM after 48 hrs by sulforhodamine B assay relative to control; details: SK-MEL-5, 48 h, read-out: Activity
NCI/ADR-RES [12] = assay: Cytotoxicity against human NCI/ADR-RES cells assessed as cell growth at 0.1 uM after 48 hrs by sulforhodamine B assay relative to control; details: read-out: Activity
MDA-MB-468 [13] = assay: Cytotoxicity against human MDA-MB-468 cells assessed as cell growth at 10 uM after 48 hrs by sulforhodamine B assay relative to control; details: MDA-MB-468, 48 h, read-out: Activity
MDA-MB-435 [14] = assay: Cytotoxicity against human MDA-MB-435 cells assessed as cell growth at 0.01 uM after 48 hrs by sulforhodamine B assay relative to control; details: MDA-MB-435, 48 h, read-out: Activity
MDA-MB-435 [15] = assay: Cytotoxicity against human MDA-MB-435 cells assessed as cell growth at 1 uM after 48 hrs by sulforhodamine B assay relative to control; details: MDA-MB-435, 48 h, read-out: Activity
OVCAR-8 = assay: Cytotoxicity against human OVCAR8 cells assessed as cell growth at 1 uM after 48 hrs by sulforhodamine B assay relative to control; details: OVCAR-8, 48 h, read-out: Activity
MCF7 = assay: Cytotoxicity against human MCF7 cells assessed as cell growth at 10 uM after 48 hrs by sulforhodamine B assay relative to control; details: MCF7, 48 h, read-out: Activity
CCRF-CEM [16] = assay: Cytotoxicity against human CCRF-CEM cells assessed as cell growth at 0.1 uM after 48 hrs by sulforhodamine B assay relative to control; details: read-out: Activity
NCI/ADR-RES [17] = assay: Cytotoxicity against human NCI/ADR-RES cells assessed as cell growth at 1 uM after 48 hrs by sulforhodamine B assay relative to control; details: read-out: Activity
U-251 [18] = assay: Cytotoxicity against human U251 cells assessed as cell growth at 10 uM after 48 hrs by sulforhodamine B assay relative to control; details: U-251, 48 h, read-out: Activity
M14 = assay: Cytotoxicity against human M14 cells assessed as growth inhibition after 48 hrs by sulforhodamine B assay; details: M14, 48 h
HCT-15 = assay: Cytotoxicity against human HCT15 cells assessed as cell growth at 10 uM after 48 hrs by sulforhodamine B assay relative to control; details: HCT-15, 48 h, read-out: Activity
OVCAR-4 [19] = assay: Cytotoxicity against human OVCAR4 cells assessed as cell growth at 0.1 uM after 48 hrs by sulforhodamine B assay relative to control; details: OVCAR-4, 48 h, read-out: Activity
U-251 [20] = assay: Cytotoxicity against human U251 cells assessed as cell growth at 1 uM after 48 hrs by sulforhodamine B assay relative to control; details: U-251, 48 h, read-out: Activity
COLO 205 = assay: Cytotoxicity against human COLO205 cells assessed as cell growth at 0.1 uM after 48 hrs by sulforhodamine B assay relative to control; details: COLO 205, 48 h, read-out: Activity
DU-145 [21] = assay: Cytotoxicity against human DU145 cells assessed as cell growth at 0.01 uM after 48 hrs by sulforhodamine B assay relative to control; details: DU-145, 48 h, read-out: Activity
SW-620 = assay: Cytotoxicity against human SW620 cells assessed as cell growth at 0.1 uM after 48 hrs by sulforhodamine B assay relative to control; details: SW-620, 48 h, read-out: Activity
Hs-578T = assay: Cytotoxicity against human Hs 578T cells assessed as cell growth at 0.1 uM after 48 hrs by sulforhodamine B assay relative to control; details: read-out: Activity
UACC-257 = assay: Cytotoxicity against human UACC257 cells assessed as cell growth at 1 uM after 48 hrs by sulforhodamine B assay relative to control; details: UACC-257, 48 h, read-out: Activity
LOX IMVI = assay: Cytotoxicity against human LOXIMVI cells assessed as growth inhibition after 48 hrs by sulforhodamine B assay

COc1ccc(-c2cc(/C=C/C(=O)c3ccc(N)cc3)[nH]n2)cc1
growth at 10 µM (NCI-H226 [1]): -29%
growth at 100 µM (OVCAR-4 [2]): -68%
growth at 1 µM (SK-MEL-28): 91%
growth at 1 µM (DU-145 [3]): 64%
growth at 0.1 µM (NCI-H23): 94%
growth at 10 µM (OVCAR-3): -70%
growth at 0.1 µM (SF-539 [4]): 97%
growth at 100 µM (PC-3 [5]): -83%
growth at 1 µM (CCRF-CEM [6]): 61%
GI50 (MDA-MB-468 [7]): 0.43 µM
LC50 (MDA-MB-468 [7]): 7.45 µM
TGI (MDA-MB-468 [7]): 2.09 µM
growth at 0.01 µM (PC-3 [8]): 95%
growth at 100 µM (SF-539 [9]): -94%
growth at 1 µM (SF-539 [10]): 72%
growth at 0.1 µM (HT-29): 95%
growth at 0.01 µM (NCI-H226 [11]): 102%
growth at 0.01 µM (SR): 94%
growth at 100 µM (SK-MEL-5): -100%
growth at 0.1 µM (NCI/ADR-RES [12]): 99%
growth at 10 µM (MDA-MB-468 [13]): -62%
growth at 0.01 µM (MDA-MB-435 [14]): 97%
growth at 1 µM (MDA-MB-435 [15]): 85%
growth at 1 µM (OVCAR-8): 76%
growth at 10 µM (MCF7): -30%
growth at 0.1 µM (CCRF-CEM [16]): 98%
growth at 1 µM (NCI/ADR-RES [17]): 85%
growth at 10 µM (U-251 [18]): -94%
GI50 (M14): 2.67 µM
LC50 (concentration killing 50% of cells) (M14): 36.1 µM
TGI (M14): 6.54 µM
growth at 10 µM (HCT-15): -40%
growth at 0.1 µM (OVCAR-4 [19]): 105%
growth at 1 µM (U-251 [20]): 65%
growth at 0.1 µM (COLO 205): 96%
growth at 0.01 µM (DU-145 [21]): 104%
growth at 0.1 µM (SW-620): 101%
growth at 0.1 µM (Hs-578T): 97%
growth at 1 µM (UACC-257): 90%

COc1ccc(-c2cc(/C=C/C(=O)c3cc(OC)c(OC)c(OC)c3)[nH]n2)cc1OC
growth at 10 µM (NCI-H226 [1]): -8%
growth at 1 µM (SK-MEL-28): 89%
growth at 1 µM (DU-145 [3]): 87%
growth at 0.1 µM (NCI-H23): 95%
growth at 10 µM (OVCAR-3): -85%
growth at 0.1 µM (SF-539 [4]): 81%
growth at 100 µM (PC-3 [5]): -74%
growth at 1 µM (CCRF-CEM [6]): 14%
GI50 (MDA-MB-468 [7]): 1.33 µM
LC50 (MDA-MB-468 [7]): 8.03 µM
TGI (MDA-MB-468 [7]): 3.27 µM
growth at 0.01 µM (PC-3 [8]): 97%
growth at 100 µM (SF-539 [9]): -87%
growth at 1 µM (SF-539 [10]): 17%
growth at 0.1 µM (HT-29): 99%
growth at 0.01 µM (NCI-H226 [11]): 93%
GI50 (LOX IMVI): 1.46 µM
LC50 (LOX IMVI): 5.7 µM
TGI (LOX IMVI): 2.88 µM
growth at 0.01 µM (SR): 93%
growth at 100 µM (SK-MEL-5): -98%
growth at 0.1 µM (NCI/ADR-RES [12]): 97%
growth at 10 µM (MDA-MB-468 [13]): -62%
growth at 0.01 µM (MDA-MB-435 [14]): 98%
growth at 1 µM (MDA-MB-435 [15]): 85%
growth at 1 µM (OVCAR-8): 80%
growth at 10 µM (MCF7): -81%
growth at 0.1 µM (CCRF-CEM [16]): 91%
growth at 1 µM (NCI/ADR-RES [17]): 81%
growth at 10 µM (U-251 [18]): -97%
GI50 (M14): 1.8 µM
LC50 (concentration killing 50% of cells) (M14): 7.54 µM
TGI (M14): 3.69 µM
growth at 10 µM (HCT-15): -41%
growth at 0.1 µM (OVCAR-4 [19]): 73%
growth at 1 µM (U-251 [20]): 65%
growth at 0.1 µM (COLO 205): 89%
growth at 0.01 µM (DU-145 [21]): 108%
growth at 0.1 µM (SW-620): 96%
growth at 0.1 µM (Hs-578T): 97%
growth at 1 µM (UACC-257): 89%

COc1ccc(C(=O)/C=C/c2cc(-c3ccc4c(c3)OCO4)n[nH]2)cc1OC
growth at 10 µM (NCI-H226 [1]): 1%
growth at 100 µM (OVCAR-4 [2]): -12%
growth at 1 µM (SK-MEL-28): 96%
growth at 1 µM (DU-145 [3]): 88%
growth at 0.1 µM (NCI-H23): 89%
growth at 10 µM (OVCAR-3): -47%
growth at 0.1 µM (SF-539 [4]): 95%
growth at 100 µM (PC-3 [5]): -45%
growth at 1 µM (CCRF-CEM [6]): 85%
GI50 (MDA-MB-468 [7]): 1.86 µM
LC50 (MDA-MB-468 [7]): 13.5 µM
TGI (MDA-MB-468 [7]): 4.52 µM
growth at 0.01 µM (PC-3 [8]): 99%
growth at 100 µM (SF-539 [9]): -83%
growth at 1 µM (SF-539 [10]): 88%
growth at 0.1 µM (HT-29): 92%
growth at 0.01 µM (NCI-H226 [11]): 90%
LC50 (LOX IMVI): 8.46 µM
TGI (LOX IMVI): 4.08 µM
growth at 0.01 µM (SR): 90%
growth at 100 µM (SK-MEL-5): -95%
growth at 10 µM (MDA-MB-468 [13]): -45%
growth at 0.01 µM (MDA-MB-435 [14]): 98%
growth at 1 µM (MDA-MB-435 [15]): 96%
growth at 1 µM (OVCAR-8): 89%
growth at 10 µM (MCF7): 14%
growth at 0.1 µM (CCRF-CEM [16]): 99%
growth at 10 µM (U-251 [18]): -25%
LC50 (concentration killing 50% of cells) (M14): 58.4 µM
TGI (M14): 21.4 µM
growth at 10 µM (HCT-15): 6%
growth at 0.1 µM (OVCAR-4 [19]): 94%
growth at 1 µM (U-251 [20]): 69%
growth at 0.1 µM (COLO 205): 103%
growth at 0.01 µM (DU-145 [21]): 101%
growth at 0.1 µM (SW-620): 95%
growth at 0.1 µM (Hs-578T): 92%
growth at 1 µM (UACC-257): 93%

From ChEMBL document CHEMBL4138123, “Design, synthesis and biological evaluation of novel pyrazolochalcones as potential modulators of PI3K/Akt/mTOR pathway and inducers of apoptosis in breast cancer cells” (Eur J Med Chem, 2017)
